According to patent publication US12303497B2, “Anti-androgens for the treatment of metastatic castration-sensitive prostate cancer” (priority 2019, dated 2025):

Tests used:
[1] = test system: patients with metastatic castration-sensitive prostate cancer (mCSPC); test: Phase 3 study (TITAN) of apalutamide plus ADT versus placebo plus ADT: efficacy; type: in vivo, human
Description: The data presented herein as associated with this study reflects the state of this study at the time of this filing. The study was conducted at 260 sites in 23 countries. Review boards at all participating institutions approved the study, which was conducted in accordance with current International Conference on Harmonization guidelines for Good Clinical Practice and according to Declaration of Helsinki principles. All patients provided written informed consent. An independent data-monitoring committee was commissioned by the sponsor to monitor safety and efficacy before unblinding and make study conduct recommendations. Data were transcribed by personnel at each site from source documents into sponsor-prepared electronic case report forms. Blinding of investigators, patients, study site personnel, and sponsor study team to randomization codes was maintained until study completion, independent data-monitoring committee recommendation, or individual patient medical need.
Patients were stratified by Gleason score at diagnosis (≤7 vs. >7), region (North America and European Union vs. all other countries), and prior treatment with docetaxel (yes vs. no). A Screening Phase of up to 28 days before randomization established study eligibility. Subjects will receive/received treatment in 28-day cycles during the Treatment Phase until disease progression or the occurrence of unacceptable treatment-related toxicity or the sponsor terminates the study. […] During the Follow-up Phase, data collection (every 4 months) will include survival, additional data on secondary endpoints, date and type of disease progression (radiographic, PSA, clinical or a combination) on the first subsequent therapy for prostate cancer, and subsequent therapy for prostate cancer. Data collection in follow-up will continue until the subject dies, withdraws consent, is lost to follow-up or the study is terminated by the sponsor. The Brief Pain Inventory Short Form (BPI SF), Brief Fatigue Inventory (BFI), and EQ-5D-5L patient-report outcome (PRO) measures will also continue in the Follow-up Phase up to 12 months after treatment discontinuation.
Eligible patients were required to have documented adenocarcinoma of the prostate and distant metastatic disease documented by ≥1 lesion on bone scan, with or without visceral or lymph node involvement. […] Patients were castration sensitive (i.e., patients who are not receiving ADT at the time of progression). Previous treatment for prostate cancer was limited to prior docetaxel (maximum six cycles, no evidence of progression during treatment or before randomization), ADT for ≤6 months for metastatic castration-sensitive prostate cancer or ≤3 years total duration for localized prostate cancer, one course of radiation or surgical therapy for symptoms associated with metastatic disease, and other localized treatments (e.g., radiation therapy, prostatectomy) completed ≥1 year before randomization. Patients who had received a gonadotropin-releasing hormone agonist ≤28 days before randomization were required to take a first-generation antiandrogen (i.e., biclutamide, flutamide, or nilutamide) for ≥14 days before randomization. Antiandrogen must have been discontinued before randomization. Patients with severe angina, myocardial infarction, congestive heart failure, arterial/venous thromboembolic events, history of or predisposition for seizure, or recent ventricular arrhythmias were excluded.

[2] = Single oral administration of radiolabeled apalutamide (AUC share, excretion); type: in vivo
BCRP/OATP1B1 = test: Co-administration of ERLEADA with rosuvastatin (BCRP/OATP1B1 substrate); conditions: in vivo
[3] = test system: in vitro chromosome aberration assay; test: In vitro chromosome aberration assay; type: cell-based
rat bone marrow = test: In vivo rat bone marrow micronucleus assay
dogs = test: Repeat-dose toxicity study in dogs (up to 39 weeks); type: in vivo, dog
male rats = test: Fertility study in male rats; type: in vivo, rat
[4] = test system: non-castrate hormone-sensitive and bicalutamide-resistant human prostate cancer xenograft models; conditions: Clegg et al. Cancer Res. 2012; cited from earlier work
CYP2B6 = CYP2B6 (Homo sapiens, UniProt P20813); test: In vitro CYP inhibition
CYP2C8 [5] = target: T1, CYP2C8 (Homo sapiens, UniProt P10632); test: In vitro CYP inhibition
T1 sequence (P10632 1-490): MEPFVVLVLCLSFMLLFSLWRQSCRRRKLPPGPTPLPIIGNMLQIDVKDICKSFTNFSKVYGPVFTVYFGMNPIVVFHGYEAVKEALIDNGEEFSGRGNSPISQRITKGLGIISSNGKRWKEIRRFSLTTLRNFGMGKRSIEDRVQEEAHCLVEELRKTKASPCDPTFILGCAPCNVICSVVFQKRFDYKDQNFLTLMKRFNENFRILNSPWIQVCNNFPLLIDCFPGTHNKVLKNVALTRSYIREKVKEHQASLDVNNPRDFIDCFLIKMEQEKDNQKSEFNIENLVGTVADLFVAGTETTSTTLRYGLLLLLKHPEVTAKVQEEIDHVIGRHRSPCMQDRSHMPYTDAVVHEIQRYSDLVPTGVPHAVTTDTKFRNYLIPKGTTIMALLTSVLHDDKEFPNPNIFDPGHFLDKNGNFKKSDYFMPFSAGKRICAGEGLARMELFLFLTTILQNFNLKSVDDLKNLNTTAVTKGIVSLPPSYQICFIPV

CYP2C19 = CYP2C19 (Homo sapiens, UniProt P33261); test: In vitro CYP inhibition
[6] = target: organic cation transporter 2 (OCT2) (Homo sapiens, UniProt O15244); test: In vitro transporter inhibition
P-gp = P-gp (Homo sapiens, UniProt P08183); test: In vitro transporter substrate study
CYP3A4 = CYP3A4 (Homo sapiens, UniProt P08684); test: Co-administration with itraconazole (strong CYP3A4 inhibitor); type: in vivo; design: endogenous in cells; host or cells: human subjects, in vivo; conditions: ERLEADA 240 mg single dose with itraconazole
CYP2C8 [7] = target: T1, CYP2C8; test: Contribution of CYP2C8 in the metabolism of apalutamide; design: endogenous in cells; host or cells: human subjects, in vivo; conditions: estimated
From the text: Metabolism is the main route of elimination of apalutamide.

[8] = up to 70 days after single oral radiolabeled dose

Sequence of CYP3A4 (P08684 whole entry): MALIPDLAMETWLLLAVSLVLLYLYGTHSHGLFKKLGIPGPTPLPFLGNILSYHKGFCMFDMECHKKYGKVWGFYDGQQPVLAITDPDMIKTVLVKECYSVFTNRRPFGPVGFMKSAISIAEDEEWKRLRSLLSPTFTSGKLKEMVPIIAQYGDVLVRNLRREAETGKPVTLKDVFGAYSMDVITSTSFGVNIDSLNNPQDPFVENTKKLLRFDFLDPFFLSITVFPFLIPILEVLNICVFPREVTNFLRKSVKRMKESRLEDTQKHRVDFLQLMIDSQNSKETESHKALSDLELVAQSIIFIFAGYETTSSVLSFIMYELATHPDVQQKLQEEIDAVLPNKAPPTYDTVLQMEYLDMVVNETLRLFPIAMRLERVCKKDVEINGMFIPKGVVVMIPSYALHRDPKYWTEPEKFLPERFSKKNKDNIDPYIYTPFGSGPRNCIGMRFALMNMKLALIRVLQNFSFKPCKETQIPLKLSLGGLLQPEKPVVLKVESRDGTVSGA
Sequence of P-gp (P08183 whole entry): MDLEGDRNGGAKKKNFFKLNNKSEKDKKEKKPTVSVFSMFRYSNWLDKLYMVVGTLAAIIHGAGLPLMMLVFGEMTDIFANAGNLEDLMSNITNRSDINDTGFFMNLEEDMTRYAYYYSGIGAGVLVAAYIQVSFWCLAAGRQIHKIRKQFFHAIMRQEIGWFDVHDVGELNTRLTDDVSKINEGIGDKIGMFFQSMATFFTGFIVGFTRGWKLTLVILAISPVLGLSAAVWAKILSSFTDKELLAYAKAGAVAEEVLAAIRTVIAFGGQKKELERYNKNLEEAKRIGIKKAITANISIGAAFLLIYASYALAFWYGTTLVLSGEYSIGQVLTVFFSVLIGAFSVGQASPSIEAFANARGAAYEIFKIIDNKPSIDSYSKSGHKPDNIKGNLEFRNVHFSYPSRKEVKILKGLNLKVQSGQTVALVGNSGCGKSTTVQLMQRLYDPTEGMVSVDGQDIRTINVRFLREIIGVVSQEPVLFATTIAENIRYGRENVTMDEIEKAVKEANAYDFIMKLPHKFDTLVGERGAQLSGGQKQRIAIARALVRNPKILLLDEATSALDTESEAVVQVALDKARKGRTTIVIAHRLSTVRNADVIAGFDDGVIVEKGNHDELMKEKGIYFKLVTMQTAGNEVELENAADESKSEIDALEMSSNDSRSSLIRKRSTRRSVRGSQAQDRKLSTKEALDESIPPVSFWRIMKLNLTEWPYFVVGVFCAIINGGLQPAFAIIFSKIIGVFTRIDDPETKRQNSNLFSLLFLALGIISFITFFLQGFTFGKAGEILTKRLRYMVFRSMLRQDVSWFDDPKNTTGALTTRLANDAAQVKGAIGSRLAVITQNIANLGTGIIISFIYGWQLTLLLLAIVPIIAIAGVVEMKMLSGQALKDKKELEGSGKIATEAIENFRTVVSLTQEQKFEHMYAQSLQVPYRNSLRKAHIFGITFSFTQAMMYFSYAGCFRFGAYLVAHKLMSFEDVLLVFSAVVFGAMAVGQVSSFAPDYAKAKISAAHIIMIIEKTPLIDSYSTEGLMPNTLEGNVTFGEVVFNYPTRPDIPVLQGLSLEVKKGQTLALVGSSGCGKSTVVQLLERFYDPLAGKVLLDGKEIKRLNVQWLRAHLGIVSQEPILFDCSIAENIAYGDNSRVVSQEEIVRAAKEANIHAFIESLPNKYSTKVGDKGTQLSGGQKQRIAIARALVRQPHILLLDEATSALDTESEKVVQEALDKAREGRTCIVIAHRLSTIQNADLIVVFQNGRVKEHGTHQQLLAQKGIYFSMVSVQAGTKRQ
Sequence of CYP2C19 (P33261 whole entry): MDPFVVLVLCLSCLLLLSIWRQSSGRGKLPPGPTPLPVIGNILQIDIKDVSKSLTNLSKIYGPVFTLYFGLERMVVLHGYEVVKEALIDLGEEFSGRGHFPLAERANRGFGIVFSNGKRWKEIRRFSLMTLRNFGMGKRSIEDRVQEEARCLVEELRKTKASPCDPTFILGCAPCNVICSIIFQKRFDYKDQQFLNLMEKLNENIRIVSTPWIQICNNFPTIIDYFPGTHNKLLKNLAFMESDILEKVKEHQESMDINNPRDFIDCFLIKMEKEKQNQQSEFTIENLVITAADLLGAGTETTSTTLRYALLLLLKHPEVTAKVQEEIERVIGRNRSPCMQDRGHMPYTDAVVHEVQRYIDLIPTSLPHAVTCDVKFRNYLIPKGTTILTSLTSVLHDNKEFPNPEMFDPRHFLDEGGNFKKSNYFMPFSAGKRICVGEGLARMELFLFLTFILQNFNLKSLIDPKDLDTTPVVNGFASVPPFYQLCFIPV
Sequence of organic cation transporter 2 (OCT2) (O15244 whole entry): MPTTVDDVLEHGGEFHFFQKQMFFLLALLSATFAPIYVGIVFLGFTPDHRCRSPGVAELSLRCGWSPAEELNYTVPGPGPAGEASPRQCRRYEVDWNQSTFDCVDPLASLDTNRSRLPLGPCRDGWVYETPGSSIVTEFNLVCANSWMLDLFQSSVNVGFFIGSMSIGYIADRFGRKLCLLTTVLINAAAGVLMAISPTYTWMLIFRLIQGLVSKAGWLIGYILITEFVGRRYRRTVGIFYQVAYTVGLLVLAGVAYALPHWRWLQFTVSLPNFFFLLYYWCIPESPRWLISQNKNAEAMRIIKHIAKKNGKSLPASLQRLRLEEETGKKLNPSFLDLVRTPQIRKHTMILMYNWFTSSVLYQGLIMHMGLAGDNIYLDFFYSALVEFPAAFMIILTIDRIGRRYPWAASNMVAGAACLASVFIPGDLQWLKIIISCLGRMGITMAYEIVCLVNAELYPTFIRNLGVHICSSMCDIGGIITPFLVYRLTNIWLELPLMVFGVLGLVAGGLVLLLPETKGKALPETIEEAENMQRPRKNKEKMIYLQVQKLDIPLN
Sequence of CYP2B6 (P20813 whole entry): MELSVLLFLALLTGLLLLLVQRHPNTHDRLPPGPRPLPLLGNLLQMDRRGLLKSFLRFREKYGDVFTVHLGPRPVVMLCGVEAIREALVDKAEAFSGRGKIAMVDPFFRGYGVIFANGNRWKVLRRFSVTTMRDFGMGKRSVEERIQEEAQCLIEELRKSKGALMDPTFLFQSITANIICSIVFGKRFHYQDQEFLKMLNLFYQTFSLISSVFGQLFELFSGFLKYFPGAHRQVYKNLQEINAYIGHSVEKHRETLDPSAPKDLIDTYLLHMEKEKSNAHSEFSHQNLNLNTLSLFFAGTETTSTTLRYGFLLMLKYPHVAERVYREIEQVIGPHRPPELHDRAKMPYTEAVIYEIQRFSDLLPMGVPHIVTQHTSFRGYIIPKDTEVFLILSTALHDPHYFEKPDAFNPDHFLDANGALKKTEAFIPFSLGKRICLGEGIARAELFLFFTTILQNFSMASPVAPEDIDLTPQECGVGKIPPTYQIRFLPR

CNC(=O)c1ccc(N2C(=S)N(c3cnc(C#N)c(C(F)(F)F)c3)C(=O)C23CCC3)cc1F [Apalutamide, 4-[7-(6-cyano-5-trifluoromethylpyridin-3-yl)-8-oxo-6-thioxo-5,7-diazaspiro[3.4]oct-5-yl]-2-fluoro-N-methylbenzamide]
Treatment discontinuations as the result of progressive disease ([1]; 99 patients): 19%
Deaths at cutoff for the first interim analysis ([1]; 525 patients randomized): 83
Radiographic progression events ([1]; 525 patients randomized): 134
Median radiographic progression-free survival ([1]; final analysis for rPFS): not reached
Overall survival, 24-month event-free rate ([1]; in vivo): 82%
Patients in whom PSA reached undetectable levels (PSA<0.2 ng per ml) ([1]; in vivo): 68%
Radiographic progression-free survival, 24-month event-free rate ([1]; in vivo): 68%
Change in FACT-P from baseline (health-related quality of life) ([1]; mixed-effect repeated measures model): maintained health-related quality of life and no between-group difference
Patients who discontinued because of disease progression ([1]; n = 525): 99 (18.9) no. (%)
Reduction in risk of death ([1]; vs placebo + ADT): 33%
Reduction in risk of radiographic progression or death ([1]; vs placebo + ADT): 52%
Share of the total AUC ([2]; single oral radiolabeled apalutamide 240 mg): 45%
Dose recovered in feces [2, 8]: 24%
Dose recovered in feces as this compound [2, 8]: 1.5%
Dose recovered in urine [2, 8]: 65%
Dose recovered in urine as this compound [2, 8]: 1.2%
Induction of BCRP and OATP1B1, clinically (BCRP/OATP1B1): weak inducer
Genotoxicity [3]: not genotoxic
Genotoxicity (rat bone marrow): not genotoxic
Dose at which atrophy of prostate gland and seminal vesicles, aspermia/hypospermia, tubular degeneration and/or interstitial cell hyperplasia or hypertrophy were observed (dogs): ≥ 2.5 mg/kg/day
Dose at which a reduced number of live fetuses due to increased pre- and/or post-implantation loss was observed (male rats; 4 weeks of administration): 150 mg/kg/day
Dose at which decreased sperm concentration and motility, abnormal sperm morphology, lower copulation and fertility rates, reduced secondary sex gland and epididymis weights were observed (male rats; 4 weeks of dosing): ≥ 25 mg/kg/day
Time after last administration at which effects on male rats were reversible (male rats; rat, in vivo): 8 weeks
Tumor response [4]: partial or complete tumor regression
CYP2B6 inhibition (CYP2B6): moderate inhibitors
CYP2C8 inhibition (CYP2C8 [5]): moderate inhibitors
CYP2C19 inhibition (CYP2C19): weak inhibitors
Inhibition of OCT2 [6]: inhibit
Substrate for P-gp (P-gp): substrates
Apalutamide AUC change (CYP3A4): similar
Apalutamide Cmax decrease (CYP3A4): 22%
Contribution of CYP2C8 in the metabolism of apalutamide (CYP2C8 [7]; at steady-state): 40%
Contribution of CYP2C8 in the metabolism of apalutamide (CYP2C8 [7]; following single dose): 58%
